The text below walks through data of patent publication US10450613B2, “EGFR/NEDD9/TGF-β interactome and methods of use thereof for the identification of agents having efficacy in the treatment of hyperproliferative disorders” (Fox Chase Cancer Center, priority 2007, dated 2019).

One series concerns cancer cells. The series is described as follows: Drug synergy testing (Chou-Talalay CI), cell line not stated (FIG. 17B). Format: cell-based. How it is done: (§1) The coefficient of interaction (CI) between pharmacological inhibitors was established by the Chou-Talalay method (Chou et al., (1984) Adv Enzyme Regul 22:27). The software package CalcuSyn (BioSoft, UK) was used to automate calculations. Briefly, for each drug tested, an IC50 curve was established in each cell line, and used to select combination doses of drugs for subsequent synergy tests. 3500 cells were plated per well in 96-well plates. After 24 hours, cells were treated with serial dilutions of individual inhibitors, or combinations of two inhibitors maintained at a constant molar ratio. After 72 hours incubation, cell viability was measured using either CellTiter Blue (Promega, USA) or a WST1 assay (Roche Applied Science, Indianapolis, Ind.). The CI values for each dose and corresponding cytotoxicity were expressed as the fraction affected (Fa) and were calculated using CalcuSyn computer software and presented as Fa-CI plots. CI values <1 indicate synergy, and <0.5 strong synergy, between the two agents in producing cytotoxic effect.

Series [1] deals with A431 cells. The series is described as follows: siRNA library sensitization screen, Alamar blue (CellTiter Blue) viability, sensitization index (SI) with erlotinib, panitumumab, U0126, CPT11 vs DMSO. The class given is cell-based, human. The following applies: siRNA against the named gene, false discovery rate set at 5%; for Ratio (Erlotinib): sensitization to erlotinib; for Ratio (CPT11): sensitization to CPT11. The source says: The custom siRNA library targeting 638 human genes was designed and synthesized with two siRNA duplexes for each gene target (Qiagen, Valencia, Calif.). Transfection conditions were established for the A431 […] (K-Ras wt, p53 mutant) cell line (data not shown) using PLK1 & GL2 siRNA controls to achieve Z′ values of 0.5 or greater. IC values using erlotinib, panitumumab, and camptothecin (CPT11) were established (data not shown). Details of establishment of Z′ factor for transfections, and statistical consideration for selection of preliminary positive candidates graphically outlined in FIG. 4B, and based on standard approaches described in detail in Whitehurst et al., (2007) Nature 446:815). For each gene targeted, two independent siRNA duplexes were combined and arrayed in 96-well plates with a layout intended to seed in regular positive siRNA (targeting PLK1) and negative control siRNA (targeting insect luciferase GL2, Thermo Fisher Scientific, USA) amongst test siRNAs. A reverse transfection protocol was used where siRNA at final concentration of 50 nM was mixed with Dharmafect 1 transfection reagent according to the manufacturer's instructions (Thermo Fisher, USA). Cells (3500 per well, resuspended in 1% FBS/DMEM) were added directly to wells using an automated liquid dispenser. At 24 hr following transfection, two replica plates were treated with drugs at previously established IC30 or 0.02% DMSO diluted in culture media. The viability at 96 hr post-transfection was assessed using Alamar blue (CellTiter Blue Viability Assay, Promega, USA). Dose-responses for each drug and cell line were retested in parallel with each screen.
For screening, A431 cells were transfected with siRNA followed by exposure to vehicle (0.02% DMSO), or drug used at inhibitory concentrations of 30% KA. Viability was determined for each target gene and normalized to the averaged GL2 viability on each plate. Sensitization index (SI) was calculated for each individual well on a 96-well plate as SI=(Vdrug/GL2drug)/(VDMSO/GL2DMSO), where V was viability in wells transfected with targeting duplexes and GL2 was the averaged viability of 4 wells with non-targeting negative control siRNA on the same plate. All calculations were automated using cellHTS package within open source Bioconductor Package (on the web at bioconductor.org) (Gentleman et al. (2004) Genome Biol. 5:R80). The effect of drug treatment on viability was measured based on the normalized viabilities in the drug treated and vehicle wells using Limma (Smyth, G. K. (2004) Statistical Applications in genetics and molecular biology 3, Article 3). Limma borrows strength across genes based on an empirical Bayes approach and identifies statistically significant changes in viability by combining information from a set of gene-specific tests. Hits were identified based on statistical significance as well as biological significance. Statistical significance was determined by p-value controlled for the false discovery rate (FDR) using the Benjamini-Hochberg step-up method (Benjamini et al. (1995) J. Royal Stat Soc B 57:289) to account for multiple testing. […] Biological significance was arbitrarily defined as an increase or decrease in SI greater than 15%. Hits identified as statistically and biologically significant were further validated.
Primary sensitizing hits obtained with erlotinib and/or cetuximab were further tested with erlotinib and DMSO in the A431 cell line by using 4 siRNA duplexes individually (the two originally used in the screen, plus two new non-overlapping RNA oligoribonucleotides), to confirm the sensitization phenotype at 10 nM and 50 nM concentrations. Hits were considered as validated by this method if at least 2 out of 4 siRNA reproduced the sensitization phenotype with SI≤0.85, FDR≤20% for each individual siRNA sequence in at least two independent experiments. […]

Series [2] concerns A431 cells. The series is described as follows: Phosphoproteomic analysis, Proteome Profiler array of 46 signaling proteins. The class given is cell-based, human. The settings on record: A431, serum starved, EGF-stimulated (FIG. 19A). How it is done:
For phosphoproteomic analysis, we used the Proteome Profiler™ array (R&D Systems, Minneapolis, Minn., USA) according to the manufacturer's protocol. In brief, A431 cells were grown for 24 hours in DMEM supplemented with L-glutamine and 1% FBS to 70% confluency. Cells then were either serum starved overnight or remained in the same media. Serum starved and cells incubated in 1% serum were either left untreated or incubated with IC30 concentrations of inhibitors for 3 hours. […] Serum-starved cells were subsequently stimulated with recombinant EGF (Sigma-Aldrich, USA) at 15 ng/mL for 15 minutes before lysis. For a subset of phospho-proteins, phosphorylation status was confirmed by Western blot. Quantification was done using ImageJ software.

For another series, the system named is AKT. The series is described as follows: Western analysis of AKT activation in A431 lysates (siRNA or inhibitors), basal and EGF-stimulated. Format: cell-based, human. The settings on record: serum starvation or EGF stimulation (FIG. 16). The procedure: To measure the effect of siRNAs on the activity of EGFR effectors, cells were transfected with siRNA, and the culture media replaced with glutamine-supplemented serum-free DMEM at 24 hrs post-transfection. After overnight incubation, cells were treated with DMSO, erlotinib or PHA-680632 for 2 hrs, then either left untreated, or stimulated with EGF at 15 ng/ml for 15 minutes. Cell extracts were prepared using M-PER™ mammalian protein extraction buffer (Thermo Scientific, Rockford, Ill.) supplemented with the Halt™ phosphatase inhibitor cocktail (Thermo Scientific, Rockford, Ill.) and the Complete Mini™ protease inhibitor cocktail (Roche Diagnostics Gmbh, Manheim, Germany). Extracts were centrifuged at 15,000 g for 10 min at 4° C. Western signal detection was performed using antibodies to indicated proteins with LiCor technology (Lincoln, Nebr., USA) or standard X-ray film.

The subject of the next series is HCT116 cells. The series is described as follows: Drug synergy testing (Chou-Talalay CI), viability. The class given is cell-based, human. The settings on record: HCT116; 72 hours; CI <1 synergy, <0.5 strong synergy. The procedure:
as §1

Series [3] deals with A431 cells. The series is described as follows: Drug synergy testing (Chou-Talalay CI), viability. The class given is cell-based, human. The following applies: 72 hours, CI <1 synergy, <0.5 strong synergy. The procedure: as §1
The test system of series [4] is A431 cells. The series is described as follows: Cell motility, wound healing assay. The class given is cell-based, human. The following applies: 0.5 μM erlotinib with 0.5 μM Stattic or 0.25 μM Ro-318220, 18 hours. How it is done: Soft agar assays were done essentially as described (10). Cells were seeded at 2000 cells per well and grown for 2-3 weeks. Colonies were stained with thiazolyl blue tetrazolium bromide, and scored using a Nikon SMZ1500 microscope coupled with Cool Snap charge coupled device camera (Roper Scientific, Inc., Tucson, Ariz.) with Image Pro-Plus software (Media Cybernetics, Silver Spring, Md.). Survival curves were based on at least two concentration points, with values determined in at least two separate experiments, with each assay done in duplicate. Drug interactions were calculated as above using CalcuSyn software (Biosoft, Ferguson, Mo.) to establish the combination index (CI). For motility assays, movement of A431 cells grown in 1% FCS into a scratched area of the monolayer was monitored with a phase contrast 10× objective using an inverted microscope (Nikon TE2000). Images were obtained every 20 min for 18 hours. Areas of migration were estimated using MetaMorph software. For both studies, analysis of variance was used to determine the treatment effect for each comparison. The logarithm of normalized ratios (to vehicle control) was used in the analysis. Multiple hypothesis testing was accounted for by the false discovery rate method of Benjamini & Hochberg (supra).

Series [5] concerns A431, HCT116, DLD-1, DKS-8, LoVo, SCC61, PANC-1 and MIA PaCa-2 cell lines. The series is described as follows: Cell line specificity of hit activity: siRNA sensitization to erlotinib, cetuximab and CPT11, and intrinsic viability. The following applies: network analysis of stronger hits (FIG. 14A). Format: cell-based, human. The procedure: Cell line specificity of hit activity. Of the confirmed set of 61 siRNA targets identified for erlotinib in A431 cells, 45 were further tested for sensitization to erlotinib, cetuximab and camptothecin in A431 versus refractory adenocarcinoma cell lines for which optimal transfection conditions and drug sensitivity had been established. […] SI and statistical significance were calculated as in the validation experiments. All experiments were performed at least three times independently.
In subsequent data analysis, two approaches were used. […] For all experiments performed with a given cell:drug combination (e.g., A431:erlotinib, or HCT116:CPT11) averages were determined based on at least three experimental runs. […]
In additional experiments, we comparatively profiled the efficacy of the hit panel as sensitizers of erlotinib, cetuximab, and CPT11 across a set of cell lines, including A431, the colorectal adenocarcinoma cell lines HCT116, DLD-1, DKS-8, and LoVo, the head and neck squamous cell carcinoma cell line SCC61, and the pancreatic adenocarcinoma cell lines PANC-1 and MIA PaCa-2 (FIG. 13A). […] To compensate for this difference, we analyzed the data in two ways: first, by conventional threshold analysis (FIG. 13A, left), and second, by assessing the rank order of sensitization phenotype, using relaxed statistical criteria (FIG. 13A, right; see Materials and Methods). […]

`O=C(Nc1cccc(Nc2nccc(Nc3cccc(C(F)(F)F)c3)n2)c1)C1CC1` [C1368]: in the series on cancer cells, the “Synergy with erlotinib (Chou-Talalay CI)” value is given as “synergized”.

Turning to “GRB14 (sense AAGAATGTATTTCACCTGCAA; target sequence only, antisense strand not given here)”, in the series with A431 cells [1], the “Ratio (Erlotinib)” value is 0.54.

For `C#Cc1cccc(Nc2ncnc3cc(OCCOC)c(OCCOC)cc23)c1` [erlotinib], in the series with A431 cells [2], the “Phosphorylation of 46 signaling proteins, single agent” value is “blocked EGF-induced activation of multiple signaling pathways”.

As to “GAB2 (sense CACCAATTCTGAAGACAACTA; target sequence only, further chemistry not given here)”, in the series with A431 cells [1], the “Ratio (CPT11)” value came out at 0.83.

For the compound `Cn1cc(C2=C(c3cn(C4CCN(Cc5ccccn5)CC4)c4ccccc34)C(=O)NC2=O)c2ccccc21` [enzastaurin], the “Akt S473 phosphorylation, inhibitor in combination with erlotinib” value in the series with AKT is “significantly reduced phosphorylation”. The “Synergy with erlotinib in reducing viability (Chou-Talalay CI)” value with HCT116 cells and in the series on A431 cells [3] was “synergized very significantly” throughout.

For `O=[N+]([O-])c1ccc2c(c1)S(=O)(=O)C=C2` [Stattic], the “Cell motility, inhibitor in combination with erlotinib” value in the series with A431 cells [4] is “no statistically significant synergy”. In addition, in the series on AKT, the “Akt S473 phosphorylation, inhibitor in combination with erlotinib” value is recorded as “significantly reduced phosphorylation”. For the same compound, the “Synergy with erlotinib in reducing viability (Chou-Talalay CI)” value in the series on HCT116 cells and in the series with A431 cells [3] was “synergized with erlotinib” throughout.

`Cn1cc(C2=C(c3cn(CCCSC(=N)N)c4ccccc34)C(=O)NC2=O)c2ccccc21` [Ro-318220]: the “Cell motility, inhibitor in combination with erlotinib” value in the series on A431 cells [4] is “significantly reduced tumor cell motility”. Also, the “Synergy with erlotinib in reducing viability (Chou-Talalay CI)” value with HCT116 cells and in the series on A431 cells [3] was “synergized very significantly” throughout.

Turning to “PRKACB: siRNA duplexes of the custom library targeting PRKACB (sense CAGCCTGTGTAGTGTGACAAA; target sequence only, antisense strand not given here)”, in the series with A431 cells [1], the “Ratio (CPT11)” value worked out at 0.43 and the “Ratio (Erlotinib)” value worked out at 0.53. Besides, in the series with A431 cells [1] (sensitization to panitumumab), the “Ratio (Panitumumab)” value was determined as 0.63. Besides, in series [5], the “Sensitizing activity of stronger hits across cell lines” value is listed as “strong sensitizers”.

Consider “MAP3K1 (sense CACGCATGTCAAATTCTCATA; target sequence only, antisense strand not given here)”, for which the “Ratio (Erlotinib)” value in the series with A431 cells [1] is recorded as 0.66.
